One test concerns the target T1, ACLY (Mesocricetus auratus, UniProt A0A1U7RF50).
T1 construct: from tissue; host or cells: liver of hamsters and of Ldlr-/- hamsters dosed with ISOGK
T1 sequence (A0A1U7RF50 1-1101): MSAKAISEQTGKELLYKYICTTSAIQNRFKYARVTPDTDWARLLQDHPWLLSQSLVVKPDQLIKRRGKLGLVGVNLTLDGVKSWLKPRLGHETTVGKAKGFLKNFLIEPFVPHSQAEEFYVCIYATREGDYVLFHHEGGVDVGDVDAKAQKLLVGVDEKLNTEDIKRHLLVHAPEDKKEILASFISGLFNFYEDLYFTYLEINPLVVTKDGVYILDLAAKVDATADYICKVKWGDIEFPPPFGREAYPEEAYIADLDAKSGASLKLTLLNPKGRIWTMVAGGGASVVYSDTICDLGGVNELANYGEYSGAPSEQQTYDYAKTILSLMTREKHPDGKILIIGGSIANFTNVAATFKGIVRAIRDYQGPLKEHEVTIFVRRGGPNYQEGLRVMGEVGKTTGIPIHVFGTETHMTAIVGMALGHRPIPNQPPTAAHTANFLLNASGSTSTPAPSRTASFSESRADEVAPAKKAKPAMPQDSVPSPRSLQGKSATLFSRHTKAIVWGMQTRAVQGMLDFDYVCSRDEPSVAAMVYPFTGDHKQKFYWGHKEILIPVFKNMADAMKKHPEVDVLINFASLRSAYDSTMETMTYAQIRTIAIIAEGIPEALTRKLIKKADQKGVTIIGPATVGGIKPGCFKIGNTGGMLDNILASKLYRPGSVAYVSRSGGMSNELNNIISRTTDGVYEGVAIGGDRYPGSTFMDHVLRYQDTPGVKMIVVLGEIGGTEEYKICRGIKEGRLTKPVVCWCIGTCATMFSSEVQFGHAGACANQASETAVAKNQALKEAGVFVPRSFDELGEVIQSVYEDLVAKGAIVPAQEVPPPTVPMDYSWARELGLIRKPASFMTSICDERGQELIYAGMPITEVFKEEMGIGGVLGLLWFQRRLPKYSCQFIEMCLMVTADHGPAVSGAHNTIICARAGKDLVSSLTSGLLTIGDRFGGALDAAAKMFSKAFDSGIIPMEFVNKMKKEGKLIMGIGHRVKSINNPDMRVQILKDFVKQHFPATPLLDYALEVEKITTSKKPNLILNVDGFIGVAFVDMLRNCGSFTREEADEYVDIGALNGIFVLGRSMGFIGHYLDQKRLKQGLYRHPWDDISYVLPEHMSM
As to the kind of experiment: ACLY activity in vivo, hamster liver extracts (MDH-coupled method). As for the experimental part: The activity of the ACLY enzyme was assayed utilizing malate dehydrogenase (MDH)-coupled method kits (BC4240, Solarbio, Beijing, China). In summary, liver extracts were incubated in a reaction buffer comprising 20 mM citrate, 10 mM MgCl₂, 10 mM DTT, 0.5 U/ml of malic dehydrogenase, 0.33 mM CoASH, and 0.14 mM NADH, both in the presence and absence of 5 mM ATP. The quantity of oxaloacetate produced by ACLY catalysis was determined by measuring the alteration in absorbance at 340 nm, which corresponds to the depletion of NADH during the MDH-catalyzed reaction. After accounting for background variations in absorbance in the absence of ATP, the relative ACL activities were computed by normalizing the data to the weight of the liver tissue.

The test system of test [1] is LDLR and ACLY protein levels. Put plainly: Western blot of LDLR and ACLY in Huh-7 cells. Format: cell-based, human. The conditions noted are these: Huh-7, various concentrations. How it is done:
Western blotting was performed as previously described. In brief, whole-cell lysates from cultured cells and animal tissue were prepared using 1× sample buffer, followed by boiling at 95 °C for 10 min. Subsequently, SDS-PAGE was employed to separate the samples, which were then transferred onto a nitrocellulose membrane (Pall, NY, USA). Subsequently, the membrane was incubated in a blocking buffer for one h at room temperature. Following the removal of the blocking buffer, the blots were incubated with primary antibodies (1:1,000 dilution) at 4 °C overnight. The membrane was washed thrice for 10 min each, using 1× Tris-buffered saline with 0.1% Tween-20 (TBST). Subsequently, the membranes were incubated with IRDye® 680RD Goat anti-Mouse IgG (H + L) or IRDye® 800CW Goat anti-Rabbit IgG (H + L) (1:10,000 dilution, LI-COR, Lincoln, Nebraska, USA) at room temperature for 1 h. Visualization of the blots was carried out using the Li-COR CLx infrared imaging system. GAPDH (60004-1-Ig, Proteintech, Chicago, IL, USA), ACLY (67166-1-Ig, Proteintech, Chicago, IL, USA), LDLR (10785-1-AP, Proteintech, Chicago, IL, USA), β-Actin (66009-1-Ig, Proteintech, Chicago, IL, USA), AMPK (10929-2-AP, Proteintech, Chicago, IL, USA), p-AMPK^T172 (2535, Cell Signaling Technology, Danvers, MA, USA).
(In general: Immunoblotting shows a protein as a band on a membrane.)

A short description of test [2]: Copper-induced LDL oxidation, agarose gel electrophoresis. To be noted: varying concentrations, copper 5 μM. How it is done: Prior to oxidation, EDTA was removed from LDL solutions (YB-001; Yiyuan Biotechnologies, Guangzhou, China). Subsequently, LDL solutions at a concentration of 0.2 mg/mL were incubated with varying concentrations of ISOGK in PBS for one h at 37 °C. The oxidation process was initiated by combining both native LDL and LDL pretreated with ISOGK with copper sulfate (99.0% purity; Jinshanting New Chemical Reagent Factory, Shanghai, China) to achieve a final copper concentration of 5 μM in PBS. This mixture was then incubated at 37 °C. Agarose gel electrophoresis was performed utilizing 0.5% agarose gels prepared in a sodium barbital buffer, following the stipulated electrophoretic methodology. The procedure was carried out in a 0.075 M sodium barbital buffer at a constant voltage of 55 V for a duration of one h. The relative electrophoretic mobility (REM) was determined by calculating the ratio of the migration distance of oxidized LDL to that of native LDL.

These results are taken from paper PMC11984407, “A natural small molecule isoginkgetin alleviates hypercholesterolemia and atherosclerosis by targeting ACLY” (Theranostics, 2025).

Turning to `COc1ccc(-c2cc(=O)c3c(O)cc(O)c(-c4cc(-c5cc(=O)c6c(O)cc(O)cc6o5)ccc4OC)c3o2)cc1` [ISOGK, Isoginkgetin], the “ACLY enzyme activity in liver tissue” value on ACLY (Ldlr-/- hamsters) is on record as “significantly inhibits ACLY activity”; on ACLY (high cholesterol diet hamsters, 4 weeks), “significantly inhibits ACLY activity”. Besides, in test [1], the “LDLR and ACLY protein levels” value was “no significant change in the LDLR and ACLY protein levels”. Also, in test [2], the “antioxidant activity against copper-induced LDL oxidation (REM)” value is reported as “no antioxidant activity”.
